In patent US20060128721A1, “Novel formulations of opioid-based treatments of pain comprising substituted 1,4-di-piperidin-4-yl-piperazine derivatives” (priority 2003, published 2006):

What was measured:
[1] = molecular target: T1, cloned human h-NK1 receptors expressed in CHO cells (Homo sapiens, UniProt P25103); experiment: Binding experiment for h-NK1 receptors ([3H]-Substance P displacement); conditions: read-out: h-NK1 pIC50 (converted)
T1 construct: expressed in transfected cells; host or cells: CHO cells
T1 sequence (P25103 whole entry): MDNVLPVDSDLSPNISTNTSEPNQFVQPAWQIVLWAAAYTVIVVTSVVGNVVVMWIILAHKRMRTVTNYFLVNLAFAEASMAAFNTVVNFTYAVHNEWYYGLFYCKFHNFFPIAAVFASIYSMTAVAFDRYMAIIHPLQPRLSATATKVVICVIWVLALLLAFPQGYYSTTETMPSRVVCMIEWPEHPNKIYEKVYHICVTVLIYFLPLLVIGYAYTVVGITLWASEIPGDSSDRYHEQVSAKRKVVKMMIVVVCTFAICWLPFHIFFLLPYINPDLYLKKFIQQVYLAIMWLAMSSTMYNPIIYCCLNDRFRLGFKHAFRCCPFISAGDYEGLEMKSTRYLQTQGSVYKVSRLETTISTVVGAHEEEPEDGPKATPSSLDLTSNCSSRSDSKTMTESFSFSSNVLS
Method: (§1) The compounds according to the invention were investigated for interaction with various neurotransmitter receptors, ion channels and transporter binding sites using the radioligand binding technique. Membranes from tissue homogenates or from cells, expressing the receptor or transporter of interests, were incubated with a radioactively labelled substance ([^3H]- or [^125I] ligand) to label a particular receptor. […] Following incubation, labelled membranes were harvested and rinsed with excessive cold buffer to remove non-bound radioactivity by rapid filtration under suction. Membrane bound radioactivity was counted in a scintillation counter and results were expressed in counts per minute (cpm).
(§2) The compounds were dissolved in DMSO and tested at 10 concentrations ranging from 10^−10 to 10^−5 M.
(§3) The ability of the compounds according to the invention to displace [^3H]-Substance P from cloned human h-NK1 receptors expressed in CHO cells, to displace [^3H]-SR-48968 from cloned human h-NK2 receptors expressed in Sf9 cells, and to displace [^3H]-SR-142801 from cloned human h-NK3 receptors expressed in CHO cells was evaluated.

[2] = molecular target: T2, cloned human h-NK2 receptors expressed in Sf9 cells (Homo sapiens, UniProt P21452); experiment: Binding experiment for h-NK2 receptors ([3H]-SR-48968 displacement); conditions: [3H]-SR-48968, Sf9 cells; read-out: h-NK2 pIC50 (converted)
T2 construct: expressed in transfected cells; host or cells: Sf9 cells
T2 sequence (P21452 1-398): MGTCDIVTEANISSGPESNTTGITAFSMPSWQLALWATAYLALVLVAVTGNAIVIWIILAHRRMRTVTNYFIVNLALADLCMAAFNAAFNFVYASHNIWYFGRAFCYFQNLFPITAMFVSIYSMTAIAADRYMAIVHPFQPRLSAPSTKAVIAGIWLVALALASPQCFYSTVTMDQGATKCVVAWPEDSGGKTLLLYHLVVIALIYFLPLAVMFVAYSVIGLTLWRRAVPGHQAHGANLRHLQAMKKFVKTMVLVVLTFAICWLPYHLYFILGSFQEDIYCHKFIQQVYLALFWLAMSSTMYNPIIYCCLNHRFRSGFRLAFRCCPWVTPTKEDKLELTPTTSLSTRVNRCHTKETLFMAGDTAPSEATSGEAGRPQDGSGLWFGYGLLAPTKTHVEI
Method: as §1, §2, §3

[3] = molecular target: T3, cloned human h-NK3 receptors expressed in CHO cells (Homo sapiens, UniProt P29371); experiment: Binding experiment for h-NK3 receptors ([3H]-SR-142801 displacement); conditions: [3H]-SR-142801, CHO cells; read-out: h-NK3 pIC50 (converted)
T3 construct: expressed in transfected cells; host or cells: CHO cells
T3 sequence (P29371 1-465): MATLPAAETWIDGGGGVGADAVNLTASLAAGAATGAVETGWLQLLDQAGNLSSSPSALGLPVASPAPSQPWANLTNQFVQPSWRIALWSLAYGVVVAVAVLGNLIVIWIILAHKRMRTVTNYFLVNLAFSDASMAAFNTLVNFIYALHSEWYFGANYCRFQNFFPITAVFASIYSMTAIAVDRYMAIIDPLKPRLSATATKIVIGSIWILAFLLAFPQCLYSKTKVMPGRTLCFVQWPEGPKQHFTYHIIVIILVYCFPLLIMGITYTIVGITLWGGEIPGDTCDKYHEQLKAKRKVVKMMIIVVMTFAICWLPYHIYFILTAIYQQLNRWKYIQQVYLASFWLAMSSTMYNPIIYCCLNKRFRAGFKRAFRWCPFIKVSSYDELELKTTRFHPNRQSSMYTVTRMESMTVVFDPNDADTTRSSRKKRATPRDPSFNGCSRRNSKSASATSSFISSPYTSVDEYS
Method: as §1, §2, §3

IC50 [1] | IC50 [2] | IC50 [3] | SMILES
0.794 nM | 1000 nM | 794 nM | O=C(c1cc(C(F)(F)F)cc(C(F)(F)F)c1)N1CCC(N2CCN(C3CCN(C(=O)n4ccnc4)CC3)CC2)CC1Cc1ccccc1 (centres unmarked) [Compound 12]
1.26 nM | 631 nM | 1000 nM | NC(Cc1ccc(O)cc1)C(=O)N1CCC(N2CCN(C3CCN(C(=O)c4cc(C(F)(F)F)cc(C(F)(F)F)c4)C(Cc4ccccc4)C3)CC2)CC1 (centres unmarked) [Compound 13]
39.8 nM | 1000 nM | 1000 nM | O=C(c1cc(C(F)(F)F)cc(C(F)(F)F)c1)N1CCC(N2CCN(C3CCN(Cc4cc(C(F)(F)F)cc(C(F)(F)F)c4)CC3)CC2)CC1Cc1ccccc1 (centres unmarked) [Compound 26]
1 nM | 501 nM | 158 nM | O=C(c1cc(C(F)(F)F)cc(C(F)(F)F)c1)N1CC[C@H](N2CCN(C3CCN(c4ncccn4)CC3)CC2)C[C@H]1Cc1ccccc1 [Compound 16]
31.6 nM | 316 nM | 126 nM | CC(C)(C)OC(=O)N1Cc2ccccc2C[C@H]1C(=O)N1CCC(N2CCN([C@H]3CCN(C(=O)c4cc(C(F)(F)F)cc(C(F)(F)F)c4)[C@H](Cc4ccccc4)C3)CC2)CC1 [Compound 90]
1.58 nM | 6310 nM | 200 nM | Cc1oncc1C(=O)N1CCC(N2CCN(C3CCN(C(=O)c4cc(C(F)(F)F)cc(C(F)(F)F)c4)C(Cc4ccccc4)C3)CC2)CC1 (centres unmarked) [Compound 4]
3.16 nM | 3980 nM | 5010 nM | Cc1nnsc1C(=O)N1CCC(N2CCN([C@H]3CCN(C(=O)c4cc(C(F)(F)F)cc(C(F)(F)F)c4)[C@@H](Cc4ccccc4)C3)CC2)CC1 [Compound 140]
0.631 nM | 1580 nM | 1580 nM | COCC(=O)N1CCC(N2CCN([C@H]3CCN(C(=O)c4cc(C(F)(F)F)cc(C(F)(F)F)c4)[C@H](Cc4ccccc4)C3)CC2)CC1 [Compound 104]
1 nM | 794 nM | 794 nM | O=C(c1ccccc1O)N1CCC(N2CCN([C@H]3CCN(C(=O)c4cc(C(F)(F)F)cc(C(F)(F)F)c4)[C@H](Cc4ccccc4)C3)CC2)CC1 [Compound 36]
2.51 nM | 1580 nM | 6310 nM | O=C(c1cc(C(F)(F)F)cc(C(F)(F)F)c1)N1CCC(N2CCN(C3CCNCC3)CC2)CC1Cc1ccccc1 (centres unmarked) [Compound 2]
0.501 nM | 794 nM | 251 nM | O=C(c1cccnc1)N1CCC(N2CCN([C@H]3CCN(C(=O)c4cc(C(F)(F)F)cc(C(F)(F)F)c4)[C@H](Cc4ccccc4)C3)CC2)CC1 [Compound 80]
0.398 nM | 631 nM | 316 nM | Cc1cc(C)cc(CN2CCC(N3CCN([C@H]4CCN(C(=O)c5cc(C(F)(F)F)cc(C(F)(F)F)c5)[C@H](Cc5ccccc5)C4)CC3)CC2)c1 [Compound 22]
1 nM | 1000 nM | 501 nM | COc1cc(CC(=O)N2CCC(N3CCN([C@H]4CCN(C(=O)c5cc(C(F)(F)F)cc(C(F)(F)F)c5)[C@H](Cc5ccccc5)C4)CC3)CC2)cc(OC)c1OC [Compound 106]
0.631 nM | 398 nM | 251 nM | O=C(c1cc(F)c(F)cc1F)N1CCC(N2CCN([C@H]3CCN(C(=O)c4cc(C(F)(F)F)cc(C(F)(F)F)c4)[C@H](Cc4ccccc4)C3)CC2)CC1 [Compound 62]
 | 1260 nM | 631 nM | O=C(c1snnc1CO)N1CCC(N2CCN(C3CCN(C(=O)c4cc(C(F)(F)F)cc(C(F)(F)F)c4)C(Cc4ccccc4)C3)CC2)CC1 (centres unmarked) [Compound 144]

SMILES | IC50 [1] | IC50 [2] | IC50 [3]
Cc1cccc(C)c1NC(=O)CN1CCC(N2CCN([C@H]3CCN(C(=O)c4cc(C(F)(F)F)cc(C(F)(F)F)c4)[C@H](Cc4ccccc4)C3)CC2)CC1 [Compound 97] | 0.316 nM | 501 nM | 398 nM
COc1ccc(C)cc1S(=O)(=O)N1CCC(N2CCN(C3CCN(C(=O)c4cc(C(F)(F)F)cc(C(F)(F)F)c4)C(Cc4ccccc4)C3)CC2)CC1 (centres unmarked) [Compound 119] | 25.1 nM | 1000 nM | 1000 nM
